Publication PMC8480901 (PLoS ONE, 2021)
Values joined by “and” are separate entries in the source; they are usually repeats but may differ in a detail not shown here. Identical values can stand only once. “Also recorded” adds a separate entry of the source.

Tested on: LPS-induced lung neutrophilia
Experiment: LPS-induced lung neutrophilia: total and neutrophil cell counts in BALF
Format: in vivo, BALB/c mice
Conditions: for total cell and neutrophil recruitment to the lungs (measured in BALF): 10, 30, and 100 mg/kg SC 30 min before intranasal LPS, 4 hours postchallenge, vs vehicle control; for Neutrophils in BALF: % reduction / Total cells/white blood cells in BALF: % reduction / Neutrophils in BALF, Mean / Total cells/white blood cells in BALF, Mean / Neutrophils in BALF, individual mice / Total cells/white blood cells in BALF, individual mice: LPS; for Neutrophils in BALF, Mean / Total cells/white blood cells in BALF, Mean / Neutrophils in BALF, individual mice / Total cells/white blood cells in BALF, individual mice: BALF 4 h after LPS
Protocol: Six-week-old male BALB/c mice (Charles River, Calco, Italy) were singly housed in a temperature-controlled (22°C±2°C) environment with a 12:12-hour light:dark cycle and free access to food and water. Mice were given ≥7 days for acclimation before all procedures. […] One day before the start of experimental procedures, all animals were randomized into 6 groups (n = 8/group). Animal group assignment was not blinded.
LPS lyophilized powder (2 mg; Sigma-Aldrich Chemie GmbH, Munich, Germany) from Escherichia coli (O111:B4) was dissolved in 10 mL cold saline (0.9%; Pliva, Zagreb, Croatia), vortexed, and further diluted by mixing 2 mL of this solution with 2 mL saline to reach a final concentration of 5 μg LPS/50 μL saline. […] Ketamine hydrochloride (Narketan 10) was acquired from Vetoquinol (Bern, Switzerland), and xylazine hydrochloride (Rompun, 2%) was acquired from Bayer (Leverkusen, Germany).
To induce pulmonary neutrophilia, mice in the control group received intranasal (IN) 50 μL saline, and all other animals received 5 μg LPS/50 μL saline IN per mouse.
Tracheostomy was performed, and a Buster cat catheter (1.0 × 130 mm; Kruuse, Langeskov, Denmark), shortened to 3 cm, was clamped into the trachea. The lungs were washed 3 times with cold phosphate-buffered saline (PBS; Sigma-Aldrich Chemie GmbH) in a total volume of 1 mL (0.4, 0.3, and 0.3 mL). The collected BALF samples were centrifuged (1303×g, 5 min, 4°C), and resulting cell pellets were each resuspended in 600 μL PBS. Samples were immediately analyzed for total and differential neutrophil cell counts via automated hematology analyzer (XT-2000iV; Sysmex, Kobe, Japan).
Differences between treated versus vehicle groups were determined using the Mann-Whitney test and were considered statistically significant when P<0.05. Outliers in the analysis of cytokine and chemokine concentrations were identified using the Grubbs test. No criteria were set for inclusion/exclusion of animals during the experiment or data points during the analysis.

[1] = Experiment 1, 10 mg/kg SC, listed as Azi, 10 mg/kg
[2] = Experiment 1, 30 mg/kg SC, listed as Azi, 30 mg/kg
[3] = Experiment 1, 100 mg/kg SC, listed as Azi, 100 mg/kg
[4] = Experiment 1, 1 mg/kg (IP), 1 mg/kg
[5] = Experiment 2, 0.5 mg/kg (PO), 0.5 mg/kg
[6] = Experiment 1, 10 mg/kg SC, listed as Lef, 10 mg/kg
[7] = Experiment 1, 30 mg/kg SC, listed as Lef, 30 mg/kg
[8] = Experiment 1, 100 mg/kg SC, listed as Lef, 100 mg/kg
[9] = Experiment 2, 35 mg/kg SC, listed as Lef, 35 mg/kg
[10] = Experiment 2, 70 mg/kg SC, listed as Lef, 70 mg/kg
[11] = Experiment 2, 140 mg/kg SC, listed as Lef, 140 mg/kg

CC[C@H]1OC(=O)[C@H](C)[C@@H](O[C@H]2C[C@@](C)(OC)[C@@H](O)[C@H](C)O2)[C@H](C)[C@@H](O[C@@H]2O[C@H](C)C[C@H](N(C)C)[C@H]2O)[C@](C)(O)C[C@@H](C)CN(C)[C@H](C)[C@@H](O)[C@]1(C)O [Azithromycin]
total cell and neutrophil recruitment to the lungs (measured in BALF): significant dose-dependent reductions | Neutrophils in BALF: % reduction (Experiment 1, 10 mg/kg SC): 42% | Total cells/white blood cells in BALF: % reduction (Experiment 1, 10 mg/kg SC): 68% | Neutrophils in BALF, Mean (Experiment 1, 10 mg/kg SC): 3e+08 L⁻¹ | Total cells/white blood cells in BALF, Mean (Experiment 1, 10 mg/kg SC): 4.4e+08 L⁻¹ | Neutrophils in BALF, individual mice [1]: 3.8e+08 L⁻¹ and 3.6e+08 L⁻¹ and 3e+08 L⁻¹ and 2.9e+08 L⁻¹ and 2.7e+08 L⁻¹ and 8e+07 L⁻¹ and 3.4e+08 L⁻¹ | Total cells/white blood cells in BALF, individual mice [1]: 1.5e+08 L⁻¹ and 4.9e+08 L⁻¹ and 5.5e+08 L⁻¹ and 6.2e+08 L⁻¹ and 3.6e+08 L⁻¹ and 5.1e+08 L⁻¹ and 3.8e+08 L⁻¹ | Neutrophils in BALF: % reduction (Experiment 1, 30 mg/kg SC): 45% | Total cells/white blood cells in BALF: % reduction (Experiment 1, 30 mg/kg SC): 71% | Neutrophils in BALF, Mean (Experiment 1, 30 mg/kg SC): 2.9e+08 L⁻¹ | Total cells/white blood cells in BALF, Mean (Experiment 1, 30 mg/kg SC): 4.4e+08 L⁻¹ | Neutrophils in BALF, individual mice [2]: 2.5e+08 L⁻¹ and 5.9e+08 L⁻¹ and 2.3e+08 L⁻¹ and 2.1e+08 L⁻¹ and 4.6e+08 L⁻¹ and 1.7e+08 L⁻¹ and 2e+08 L⁻¹ | Total cells/white blood cells in BALF, individual mice [2]: 2.5e+08 L⁻¹ and 3.1e+08 L⁻¹ and 4.1e+08 L⁻¹ and 8.2e+08 L⁻¹ and 4.6e+08 L⁻¹ and 3.8e+08 L⁻¹ and 5.6e+08 L⁻¹ | Neutrophils in BALF: % reduction (Experiment 1, 100 mg/kg SC): 57% | Total cells/white blood cells in BALF: % reduction (Experiment 1, 100 mg/kg SC): 95% | Neutrophils in BALF, Mean (Experiment 1, 100 mg/kg SC): 2.3e+08 L⁻¹ | Total cells/white blood cells in BALF, Mean (Experiment 1, 100 mg/kg SC): 3.7e+08 L⁻¹ | Neutrophils in BALF, individual mice [3]: 3.6e+08 L⁻¹ and 2.2e+08 L⁻¹ and 1.7e+08 L⁻¹ and 1.3e+08 L⁻¹ and 3.4e+08 L⁻¹ and 2.5e+08 L⁻¹ and 1.5e+08 L⁻¹ and 1.9e+08 L⁻¹ | Total cells/white blood cells in BALF, individual mice [3]: 2.8e+08 L⁻¹ and 3.1e+08 L⁻¹ and 4.9e+08 L⁻¹ and 3.6e+08 L⁻¹ and 4.4e+08 L⁻¹ and 2.2e+08 L⁻¹ and 5.2e+08 L⁻¹ and 3.3e+08 L⁻¹

C[C@@H]1C[C@H]2[C@@H]3CCC4=CC(=O)C=C[C@]4(C)[C@@]3(F)[C@@H](O)C[C@]2(C)[C@@]1(O)C(=O)CO [Dexamethasone]
Neutrophils in BALF: % reduction (Experiment 1, 1 mg/kg (IP)): 47% | Total cells/white blood cells in BALF: % reduction (Experiment 1, 1 mg/kg (IP)): 75% | Neutrophils in BALF, Mean (Experiment 1, 1 mg/kg (IP)): 2.8e+08 L⁻¹ | Total cells/white blood cells in BALF, Mean (Experiment 1, 1 mg/kg (IP)): 4.3e+08 L⁻¹ | Neutrophils in BALF, individual mice [4]: 2.5e+08 L⁻¹ and 1.2e+08 L⁻¹ and 2.9e+08 L⁻¹ and 2.6e+08 L⁻¹ and 3e+08 L⁻¹ and 3.9e+08 L⁻¹ and 3.1e+08 L⁻¹ | Total cells/white blood cells in BALF, individual mice [4]: 3.9e+08 L⁻¹ and 3.8e+08 L⁻¹ and 4.1e+08 L⁻¹ and 2.3e+08 L⁻¹ and 4.5e+08 L⁻¹ and 5.2e+08 L⁻¹ and 6.3e+08 L⁻¹ | Neutrophils in BALF: % reduction (Experiment 2, 0.5 mg/kg (PO)): 61% | Total cells/white blood cells in BALF: % reduction (Experiment 2, 0.5 mg/kg (PO)): 78% | Neutrophils in BALF, Mean (Experiment 2, 0.5 mg/kg (PO)): 2.4e+08 L⁻¹ | Total cells/white blood cells in BALF, Mean (Experiment 2, 0.5 mg/kg (PO)): 5e+08 L⁻¹ | Neutrophils in BALF, individual mice [5]: 2.5e+08 L⁻¹ and 2e+08 L⁻¹ and 3.4e+08 L⁻¹ and 1.9e+08 L⁻¹ and 2.3e+08 L⁻¹ and 3.1e+08 L⁻¹ and 1.7e+08 L⁻¹ | Total cells/white blood cells in BALF, individual mice [5]: 7e+08 L⁻¹ and 2.9e+08 L⁻¹ and 5.5e+08 L⁻¹ and 4.4e+08 L⁻¹ and 7.7e+08 L⁻¹ and 3.6e+08 L⁻¹

C=C[C@]1(C)C[C@@H](OC(=O)CS[C@@H]2CC[C@@H](N)C[C@H]2O)[C@]2(C)[C@H](C)CC[C@]3(CCC(=O)[C@H]32)[C@@H](C)[C@@H]1O [Lefamulin]
total cell and neutrophil recruitment to the lungs (measured in BALF): dose-dependent reduction; also recorded: almost complete reduction | Neutrophils in BALF: % reduction (Experiment 1, 10 mg/kg SC): 37% | Total cells/white blood cells in BALF: % reduction (Experiment 1, 10 mg/kg SC): 50% | Neutrophils in BALF, Mean (Experiment 1, 10 mg/kg SC): 3.3e+08 L⁻¹ | Total cells/white blood cells in BALF, Mean (Experiment 1, 10 mg/kg SC): 5e+08 L⁻¹ | Neutrophils in BALF, individual mice [6]: 4.7e+08 L⁻¹ and 2.2e+08 L⁻¹ and 1.9e+08 L⁻¹ and 3.7e+08 L⁻¹ and 3.1e+08 L⁻¹ and 1e+08 L⁻¹ and 4.5e+08 L⁻¹ and 4.9e+08 L⁻¹ | Total cells/white blood cells in BALF, individual mice [6]: 6.6e+08 L⁻¹ and 5.9e+08 L⁻¹ and 6.1e+08 L⁻¹ and 3e+08 L⁻¹ and 5.1e+08 L⁻¹ and 6.3e+08 L⁻¹ and 5e+08 L⁻¹ and 1.7e+08 L⁻¹ | Neutrophils in BALF: % reduction (Experiment 1, 30 mg/kg SC): 59% | Total cells/white blood cells in BALF: % reduction (Experiment 1, 30 mg/kg SC): 78% | Neutrophils in BALF, Mean (Experiment 1, 30 mg/kg SC): 2.2e+08 L⁻¹ | Total cells/white blood cells in BALF, Mean (Experiment 1, 30 mg/kg SC): 4.2e+08 L⁻¹ | Neutrophils in BALF, individual mice [7]: 2.1e+08 L⁻¹ and 3.8e+08 L⁻¹ and 1.2e+08 L⁻¹ and 2.5e+08 L⁻¹ and 1.7e+08 L⁻¹ and 2.3e+08 L⁻¹ and 1.6e+08 L⁻¹ | Total cells/white blood cells in BALF, individual mice [7]: 2.7e+08 L⁻¹ and 3.7e+08 L⁻¹ and 3.5e+08 L⁻¹ and 6.6e+08 L⁻¹ and 2.6e+08 L⁻¹ and 3.9e+08 L⁻¹ and 3.8e+08 L⁻¹ | Neutrophils in BALF: % reduction (Experiment 1, 100 mg/kg SC): 70% | Total cells/white blood cells in BALF: % reduction (Experiment 1, 100 mg/kg SC): 100% | Neutrophils in BALF, Mean (Experiment 1, 100 mg/kg SC): 1.6e+08 L⁻¹ | Total cells/white blood cells in BALF, Mean (Experiment 1, 100 mg/kg SC): 3.5e+08 L⁻¹ | Neutrophils in BALF, individual mice [8]: 1.4e+08 L⁻¹ and 1.8e+08 L⁻¹ and 1.2e+08 L⁻¹ and 1.3e+08 L⁻¹ and 2.8e+08 L⁻¹ and 1.7e+08 L⁻¹ | Total cells/white blood cells in BALF, individual mice [8]: 3.3e+08 L⁻¹ and 2.4e+08 L⁻¹ and 3.1e+08 L⁻¹ and 3.4e+08 L⁻¹ and 2.3e+08 L⁻¹ and 3.9e+08 L⁻¹ and 6.6e+08 L⁻¹ | Neutrophils in BALF: % reduction (Experiment 2, 35 mg/kg SC): 64% | Total cells/white blood cells in BALF: % reduction (Experiment 2, 35 mg/kg SC): 69% | Neutrophils in BALF, Mean (Experiment 2, 35 mg/kg SC): 2.2e+08 L⁻¹ | Total cells/white blood cells in BALF, Mean (Experiment 2, 35 mg/kg SC): 5.5e+08 L⁻¹ | Neutrophils in BALF, individual mice [9]: 2e+08 L⁻¹ and 1.6e+08 L⁻¹ and 2.4e+08 L⁻¹ and 2.2e+08 L⁻¹ and 3.4e+08 L⁻¹ and 1.9e+08 L⁻¹ and 3.1e+08 L⁻¹ and 1.2e+08 L⁻¹ | Total cells/white blood cells in BALF, individual mice [9]: 9.1e+08 L⁻¹ and 2e+08 L⁻¹ and 7e+08 L⁻¹ and 4.4e+08 L⁻¹ and 4.6e+08 L⁻¹ and 3.7e+08 L⁻¹ and 7.3e+08 L⁻¹ and 5.5e+08 L⁻¹ | Neutrophils in BALF: % reduction (Experiment 2, 70 mg/kg SC): 77% | Total cells/white blood cells in BALF: % reduction (Experiment 2, 70 mg/kg SC): 91% | Neutrophils in BALF, Mean (Experiment 2, 70 mg/kg SC): 1.5e+08 L⁻¹ | Total cells/white blood cells in BALF, Mean (Experiment 2, 70 mg/kg SC): 4.3e+08 L⁻¹ | Neutrophils in BALF, individual mice [10]: 1.8e+08 L⁻¹ and 1.7e+08 L⁻¹ and 1.1e+08 L⁻¹ and 1e+08 L⁻¹ and 2.1e+08 L⁻¹ and 1.2e+08 L⁻¹ and 9e+07 L⁻¹ | Total cells/white blood cells in BALF, individual mice [10]: 4.6e+08 L⁻¹ and 2.1e+08 L⁻¹ and 4.3e+08 L⁻¹ and 4.4e+08 L⁻¹ and 3.3e+08 L⁻¹ and 3e+08 L⁻¹ and 5.8e+08 L⁻¹ and 6.7e+08 L⁻¹ | Neutrophils in BALF: % reduction (Experiment 2, 140 mg/kg SC): 77% | Total cells/white blood cells in BALF: % reduction (Experiment 2, 140 mg/kg SC): 107% | Neutrophils in BALF, Mean (Experiment 2, 140 mg/kg SC): 1.5e+08 L⁻¹ | Total cells/white blood cells in BALF, Mean (Experiment 2, 140 mg/kg SC): 3.4e+08 L⁻¹ | Neutrophils in BALF, individual mice [11]: 1.6e+08 L⁻¹ and 1.4e+08 L⁻¹ and 1.2e+08 L⁻¹ and 1.7e+08 L⁻¹ and 9e+07 L⁻¹ and 2e+08 L⁻¹ | Total cells/white blood cells in BALF, individual mice [11]: 4.6e+08 L⁻¹ and 3.9e+08 L⁻¹ and 2.6e+08 L⁻¹ and 2.9e+08 L⁻¹ and 3.6e+08 L⁻¹ and 3.3e+08 L⁻¹ and 4.4e+08 L⁻¹ and 2e+08 L⁻¹
